Like-named read-outs stand apart in the source and are kept apart here.

This is an account of results in publication PMC4600319 (Malaria Journal, 2015).

Series [1] can be described thus: Open-label, three-way, sequential, cross-over pharmacokinetic interaction study, plasma, non-compartmental analysis. The settings on record: for plasma concentration 1 h post-dose on Day 3: median; for Tmax / AUC(0-t) / half-life / AUC(0-inf) / Cmax: both sexes, human, oral, plasma, median (95 % CI); for Tmax: read-out: tmax; for AUC(0-t): read-out: AUC0–24h; for half-life: read-out: t1/2z (converted); for Cmax: read-out: Cmax. In kind it is in vivo, human (healthy Thai adults). The method, then: This was an open-label, three-way, sequential, cross-over, pharmacokinetic study in healthy adult volunteers. […] Written informed consent for study participation was obtained from each subject before study. […] Consenting adults were screened for eligibility and a physical examination, electrocardiogram (ECG), and laboratory safety tests (haematology, biochemistry, urinalysis, and pregnancy status) were performed. Figure 1 summarizes the study design. The pharmacokinetic sampling was performed sequentially on three occasions. […] Ltd., China). Mefloquine doses were given as three tablets on Day 1 and two tablets on Day 2 (250 mg mefloquine per tablet, manufactured by Atlantic Pharmaceutical Ltd., China). There was a 2-months wash-out period between Period 1 and Period 2. Period 2: subjects received oral doses of LPV/r (400/100 mg), twice daily, for 14 days (27 doses). There was no washout between Period 2 and Period 3. […] Immediately after collection, all blood samples were centrifuged (1200×g, 10 min) and the plasma samples were stored at -80 °C until analysis. […] University. […] An Agilent 1260 LC system (Agilent Technologies, CA, USA) coupled with an API 5000 triple quadrupole mass spectrometer (Applied Biosystems/MDS SCIEX, Foster City, USA), with a TurboVTM ionization source (TIS) interface operated in the positive ion mode, was used for the multiple reaction monitoring LC-MS/MS analysis. […] Nitrogen gas was supplied from an AB-3G (Peak Scientific, Inchinnan, UK). […] Chromatographic separation was performed using an […] XDB C18 column (5 μm, 4.6 mm × 150 mm; Thermo Fisher Scientific, MA, USA) protected with an Eclipse XDB-C8 guard column (Thermo Electron Corporation, MA, USA). The gradient mobile phase consisted of a mixture of 10 mM ammonium acetate with 0.1 % glacial acetic acid and acetonitrile running at a flow rate of 0.7 mL/min. Total run time was 12 min. […] Measurement of plasma concentrations of mefloquine was performed using high performance liquid chromatography (HPLC) according to the method of Karbwang et al. with modifications. Chromatographic separation was performed on a Hypersil ODS column (5 μm, 4.6 mm × 250 mm; Thermo Fisher Scientific, MA, USA) protected with an Eclipse XDB-C8 guard column (Thermo Electron Corporation, MA, USA). […] The UV detector was set at the wavelength of 220 nm. […] This laboratory participates in the NIAID Clinical Pharmacology Quality Assurance Programme Proficiency Testing. Pharmacokinetic parameters were determined using a non-compartmental analysis using WinNonLin software (version 6.3, […], USA). […] The Cmax (maximum concentration); tmax (time of maximum concentration) were determined by direct inspection of the plasma concentration-time data. […] The extrapolated AUC from the last sampling time to infinity was estimated from Ct/elimination rate constant (lz). lz was calculated from at least five concentration-time points of elimination phase. Apparent oral clearance (CL/F) was calculated as dose/AUC0-∞. Volume of distribution (Vz/F) was calculated as CL/F/lz, and the terminal half-life (t1/2z) was calculated as 0.693/lz. […] Statistical analysis of the data was performed using SPSS version 16.0 (Gorichem, The Netherlands). Pharmacokinetic parameters are presented as median and 95 % confidence intervals (95 % CI). […] Comparison of the frequency of subjects with adverse events between the two groups was performed using a Chi-square test. Statistical significance level was set at a = 0.05 for all tests.

For series [2] the following is noted: previous report, healthy Thai volunteers; cited from earlier work.
[3] abbreviates: 3-day artesunate-mefloquine alone (Period 1).
The mark [4] stands for this setting: 3-day artesunate-mefloquine with LPV/r (Period 3).
The mark [5] stands for this setting: in the presence of LPV/r vs alone.
Setting [6] is: in the presence of steady-state LPV/r vs alone.

As a reminder, the Tmax is the time from dosing to the highest level. By AUC(0-inf) is commonly meant the area under the concentration-time curve extrapolated to infinity. Read a low AUC(0-inf) as low exposure. The Cmax is the peak of the concentration-time curve. For `C[C@H]1[C@@H](O)O[C@@H]2O[C@@]3(C)CC[C@H]4[C@H](C)CC[C@@H]1[C@@]24OO3` [Dihydroartemisinin, dihydroartemisinin], the “reduction in the AUC” value in series [1] (LPV/r co-administration) was 50%. In series [1] (artesunate given with LPV/r), the “plasma concentration 1 h post-dose on Day 3” value turned out to be 310 ng/mL. In addition, in series [1] (artesunate-mefloquine without LPV/r), the “plasma concentration 1 h post-dose on Day 3” value amounted to 580 ng/mL. The Tmax in series [1] (3-day artesunate-mefloquine with LPV/r 400/100 mg twice a day (Period 3)) worked out at 2 h. In series [1] (setting [3]), the AUC(0-t) was determined as 2370 ng·h/mL, the half-life was 4.02 h, the AUC(0-inf) was found to be 2680 ng·h/mL and the Tmax was found to be 2 h. For the same molecule, in series [1] (setting [4]), the AUC(0-t) was 990 ng·h/mL, the Cmax stood at 310 ng/mL, the half-life is 9.99 h and the AUC(0-inf) came out at 1370 ng·h/mL. Besides, the Cmax in series [1] (po, 3-day artesunate-mefloquine alone (Period 1)) was determined as 580 ng/mL. Further, in series [1] (combination vs alone), the “90 % CI of the GMR of AUC0−24h vs bioequivalent range of 0.8-1.25” value was “outside the acceptable bioequivalent range” and the “90 % CI of the GMR of Cmax vs bioequivalent range of 0.8-1.25” value was “outside the acceptable bioequivalent range”. Also, in series [1] (in the presence of LPV/r), the “decrease in AUC0-24 h (as nmol h/mL) relative to the increase in artesunate AUC” value is listed as “about 180%”. Further, in series [1] (setting [5]), the “decrease in AUC0−∞” value is listed as around 48.8% and the “decrease in Cmax” value is given as “about 46.6%”. In series [1] (setting [6]), the “decrease in AUC0−24h” value is listed as around 58.2% and the “increase in t1/2z” value amounted to 148.5%. In addition, in series [1] (in vivo), the “extrapolated AUC from the last blood sampling time to infinity (AUCt−∞)” value is “less than 5%” and the “inter-individual variability in AUC0−24h” value was found to be 80.2%. Besides, the “t1/2z GMR (90 % CI)” value in series [1] (with LPV/r vs alone, geometric mean ratio) is listed as 1.89 (1.00, 3.58). Besides, the t1/2z in series [2] was 0.74 h.
